Literature values, collected in patent US7060435B1, “Genotyping cytochrome expression” (Janssen Pharmaceutica, priority 1998, dated 2006).

Biological target: CYP3A4 and CYP3A5 (Homo sapiens, UniProt P08684)
Conditions: samples containing only CYP3A4

Sequence of CYP3A4 and CYP3A5 (P08684 2-503): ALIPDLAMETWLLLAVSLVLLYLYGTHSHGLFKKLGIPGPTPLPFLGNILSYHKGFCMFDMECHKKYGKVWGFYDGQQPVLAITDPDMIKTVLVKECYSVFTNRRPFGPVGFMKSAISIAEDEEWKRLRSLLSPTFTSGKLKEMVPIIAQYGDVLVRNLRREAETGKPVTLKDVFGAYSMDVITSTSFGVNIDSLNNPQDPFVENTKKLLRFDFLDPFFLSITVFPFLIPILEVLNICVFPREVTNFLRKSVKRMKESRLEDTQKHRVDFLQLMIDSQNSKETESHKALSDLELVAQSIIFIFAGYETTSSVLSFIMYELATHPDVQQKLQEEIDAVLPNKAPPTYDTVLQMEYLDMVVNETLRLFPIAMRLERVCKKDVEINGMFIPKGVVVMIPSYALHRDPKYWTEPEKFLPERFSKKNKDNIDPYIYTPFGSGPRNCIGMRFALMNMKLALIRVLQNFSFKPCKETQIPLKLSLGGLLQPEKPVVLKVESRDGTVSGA

Which 1-OHM/4-OHM ratio does the source give for `Cc1ncc2n1-c1ccc(Cl)cc1C(c1ccccc1F)=NC2` [midazolam] here?
The 1-OHM/4-OHM ratio was less than 4.
